Results as given in US10576085B2, “Substituted aminopurine compounds, compositions thereof, and methods of treatment therewith” (Signal Pharmaceuticals, LLC, priority 2016, dated 2020).

How the values were obtained:
LOX-IMVI tumor = assay: LOX-IMVI subcutaneous melanoma xenograft model; assay type: in vivo, SCID mice; settings: for Tumor volume compared to vehicle control: p<0.001
Procedure: For xenograft model studies human cancer cell lines were injected into SCID (severe combined immunodeficiency) mice. Cancer cell lines were propagated in culture in vitro. Tumor bearing animals were generated by injecting precisely determined numbers of cells into mice. Following inoculation of animals, the tumors were allowed to grow to a certain size prior to randomization. The mice bearing xenograft tumors ranging between pre-determined sizes were pooled together and randomized into various treatment groups. A typical efficacy study design involved administering one or more compounds at various dose levels to tumor-bearing mice. Additionally, reference chemotherapeutic agents (positive control) and negative controls were similarly administered and maintained. Tumor measurements and body weights were taken over the course of the study.
Mice were anesthetized with inhaled isoflurane and then inoculated with LOX-IMVI tumor cells subcutaneously above the right hind leg with 0.1 mL of a single cell suspension in PBS using a sterile 1 mL syringe fitted with a 26-gauge needle. Following inoculation of the animals, tumors were allowed to grow to approximately 75-125 mm^3 or in some cases 250-400 mm^3 prior to randomization of the mice. The tumor of each animal was measured and animals with tumors in the appropriate range were included in the study. Animals from the study pool were then distributed randomly into various cages and the cages were randomly assigned to vehicle, positive control, or test article groups. All of the mice were tagged with metal ear tags on the right ear. A typical group consisted of 8-10 animals. For a typical xenograft study, SCID mice bearing tumors were randomized and dosed with compounds ranging from, for example, 100 mg/kg to 0.1 mg/kg with different dose scheduling, including, but not limited to, qd, q2d, q3d, q5d, q7d and bid. The mice were dosed for 1-4 weeks. Tumors were measured twice a week using calipers and tumor volumes were calculated using the formula of W^2× L/2.
The purpose of this study was to confirm the efficacy of Compound 1 in the LOX-IMVI melanoma xenograft model.
In a separate experiment, Compound 1 was administered orally, QD for 8 days at 0.2, 1, 5, 10, and 15 mg/kg.

PD-L1 = PD-L1 expression, Western blot, LOX-IMVI (BRAF V600E); assay type: cell-based
Procedure: The effect of Compound 1 was evaluated on PD-L1 expression levels. Cells were cultured in presence or absence of Compound 1 for indicated time before expression levels of PD-L1, DUSP4 and α-tubulin or α-actin were measured by Western blot. To detect surface levels of PD-L1, cells were treated with DMSO or Compound 1 at indicated concentrations for 48 h and cell surface expression of PD-L1 was detected using flow cytometry analysis (FACS) with an APC-labeled antibody to PD-L1 (clone 29E.1A3; BioLegend, San Diego, Calif.). Geometric mean of PD-L1 positive cells was determined by FlowJo 10 (Treestar, Ashland, Oreg.).

HT29 = assay: Proliferation, CellTiter-Glo, 72 h; assay type: cell-based
SNU-387 = assay: Apoptosis, Caspase 3/7-Glo; assay type: cell-based; settings: lowest concentration inducing 2-fold increase of cleaved caspase 3/7 vs DMSO
Procedure: (§1) Prior to testing, cells were grown and expanded in culture flasks to provide sufficient amounts of starting material. Cells were then diluted to the appropriate densities and added directly to the compound-spotted 384-well plates. Cells were allowed to grow for 72 h at 37° C./5% CO2. At the time when compound was added (t0), initial cell number was assessed via a viability assay (Cell Titer-Glo) by quantifying the level of luminescence generated by ATP present in viable cells. After 72 h, cell viability of compound-treated cells was assessed via Cell Titer-Glo and luminescence measurement. The apoptotic response to Compound 1 was assessed by quantifying the activities of caspase 3 and caspase 7 (Caspase 3/7-Glo) in treated cells and DMSO control cells.
(§2) Proliferation and apoptosis were measured using CellTiter-Glo and Caspase 3/7-Glo. CalX2 values are the lowest concentration at which Compound 1 induces a 2-fold increase of cleaved caspase 3/7 compared to DMSO control. Proliferation and apoptosis data is the average of 3 experiments.

SNU-398 = assay: Apoptosis, Caspase 3/7-Glo; assay type: cell-based; settings: lowest concentration inducing 2-fold increase of cleaved caspase 3/7 vs DMSO
Procedure: as §1, §2

JHH-4 = assay: Apoptosis, Caspase 3/7-Glo; assay type: cell-based; settings: lowest concentration inducing 2-fold increase of cleaved caspase 3/7 vs DMSO
Procedure: as §1, §2

JHH-6 = assay: Apoptosis, Caspase 3/7-Glo; assay type: cell-based; settings: lowest concentration inducing 2-fold increase of cleaved caspase 3/7 vs DMSO
Procedure: as §1, §2

HuCCT1 = assay: Apoptosis, Caspase 3/7-Glo; assay type: cell-based; settings: lowest concentration inducing 2-fold increase of cleaved caspase 3/7 vs DMSO
Procedure: as §1, §2

HuH-1 = assay: Apoptosis, Caspase 3/7-Glo; assay type: cell-based; settings: lowest concentration inducing 2-fold increase of cleaved caspase 3/7 vs DMSO
Procedure: as §1, §2

HLF = assay: Apoptosis, Caspase 3/7-Glo; assay type: cell-based; settings: lowest concentration inducing 2-fold increase of cleaved caspase 3/7 vs DMSO
Procedure: as §1, §2

SNU-449 = assay: Apoptosis, Caspase 3/7-Glo; assay type: cell-based; settings: lowest concentration inducing 2-fold increase of cleaved caspase 3/7 vs DMSO
Procedure: as §1, §2

HuH-7 = assay: Apoptosis, Caspase 3/7-Glo; assay type: cell-based; settings: lowest concentration inducing 2-fold increase of cleaved caspase 3/7 vs DMSO
Procedure: as §1, §2

JHH-5 = assay: Apoptosis, Caspase 3/7-Glo; assay type: cell-based; settings: lowest concentration inducing 2-fold increase of cleaved caspase 3/7 vs DMSO
Procedure: as §1, §2

Hep3B = assay: Apoptosis, Caspase 3/7-Glo; assay type: cell-based
Procedure: as §1, §2

SNU-475 = assay: Apoptosis, Caspase 3/7-Glo; assay type: cell-based; settings: lowest concentration inducing 2-fold increase of cleaved caspase 3/7 vs DMSO
Procedure: as §1, §2

HepG2 = assay: Apoptosis, Caspase 3/7-Glo; assay type: cell-based; settings: lowest concentration inducing 2-fold increase of cleaved caspase 3/7 vs DMSO
Procedure: as §1, §2

SK-HEP-1 = assay: Apoptosis, Caspase 3/7-Glo; assay type: cell-based; settings: lowest concentration inducing 2-fold increase of cleaved caspase 3/7 vs DMSO
Procedure: as §1, §2

HuH-6-Clone5 = assay: Apoptosis, Caspase 3/7-Glo; assay type: cell-based; settings: lowest concentration inducing 2-fold increase of cleaved caspase 3/7 vs DMSO
Procedure: as §1, §2

HepG2/C3A = assay: Apoptosis, Caspase 3/7-Glo; assay type: cell-based; settings: lowest concentration inducing 2-fold increase of cleaved caspase 3/7 vs DMSO
Procedure: as §1, §2

SNU-182 = assay: Apoptosis, Caspase 3/7-Glo; assay type: cell-based; settings: lowest concentration inducing 2-fold increase of cleaved caspase 3/7 vs DMSO
Procedure: as §1, §2

JHH-7 = assay: Apoptosis, Caspase 3/7-Glo; assay type: cell-based; settings: lowest concentration inducing 2-fold increase of cleaved caspase 3/7 vs DMSO
Procedure: as §1, §2

SNU-423 = assay: Apoptosis, Caspase 3/7-Glo; assay type: cell-based; settings: lowest concentration inducing 2-fold increase of cleaved caspase 3/7 vs DMSO
Procedure: as §1, §2

JHH-1 = assay: Apoptosis, Caspase 3/7-Glo; assay type: cell-based; settings: lowest concentration inducing 2-fold increase of cleaved caspase 3/7 vs DMSO
Procedure: as §1, §2

FOCUS = assay: Apoptosis, Caspase 3/7-Glo; assay type: cell-based; settings: lowest concentration inducing 2-fold increase of cleaved caspase 3/7 vs DMSO
Procedure: as §1, §2

HLE = assay: Apoptosis, Caspase 3/7-Glo; assay type: cell-based; settings: lowest concentration inducing 2-fold increase of cleaved caspase 3/7 vs DMSO
Procedure: as §1, §2

PLC-PRF-5 = assay: Apoptosis, Caspase 3/7-Glo; assay type: cell-based; settings: lowest concentration inducing 2-fold increase of cleaved caspase 3/7 vs DMSO
Procedure: as §1, §2

JHH-2 = assay: Apoptosis, Caspase 3/7-Glo; assay type: cell-based; settings: lowest concentration inducing 2-fold increase of cleaved caspase 3/7 vs DMSO
Procedure: as §1, §2

In the case of `C[C@]1(C(N)=O)CC[C@@H](n2c(Nc3c(Cl)cc(Cl)cc3Cl)nc3cnc(N[C@@H]4CCOC[C@H]4F)nc32)CC1` [Compound 1, cis-4-[2-{[(3S,4R)-3-fluorooxan-4-yl]amino}-8-(2,4,6-trichloroanilino)-9H-purin-9-yl]-1-methyl cyclohexane-1-carboxamide], the Tumor regression (LOX-IMVI tumor; 10 mg/kg orally QD 8 days) is reported as “Tumor regression”, the “Animals tumor free at study end” value (LOX-IMVI tumor; 15 mg/kg) is reported as 1 out of 9 and the “Animals with tumor regression” value (LOX-IMVI tumor; 15 mg/kg) is reported as 9 out of 9. The Tumor regression (LOX-IMVI tumor; 15 mg/kg orally QD 8 days) was “Tumor regression”, the “Tumor volume compared to vehicle control” value (LOX-IMVI tumor; 15 mg/kg) was “significant tumor volume reduction” and the “Animals tumor free at study end” value (LOX-IMVI tumor; 30 mg/kg) was 1 out of 9. For the same compound, the “Animals with tumor regression” value (LOX-IMVI tumor; 30 mg/kg) was 9 out of 9, the “Tumor volume compared to vehicle control” value (LOX-IMVI tumor; 30 mg/kg) was “significant tumor volume reduction” and the Antitumor activity (LOX-IMVI tumor; orally, QD for 8 days at 0.2, 1, 5, 10, and 15 mg/kg) was “Dose-dependent antitumor activity”. The PD-L1 expression (PD-L1) was “directly inhibits PD-L1 expression”, the “Mode of growth effect (cytotoxic / cytostatic)” value (HT29) was “cytostatic” and the Cal_X2 (SNU-387) was 0.0046. The Cal_X2 (SNU-398) was 0.0378, the Cal_X2 (JHH-4) was 0.0588 and the Cal_X2 (JHH-6) was 10.0000. For the same compound, the Cal_X2 (HuCCT1) was 0.0213, the Cal_X2 (HuH-1) was 6.5641 and the Cal_X2 (HLF) was 7.2156. For the same compound, the Cal_X2 (SNU-449) was 10.0000, the Cal_X2 (HuH-7) was 0.0118 and the Cal_X2 (JHH-5) was 0.0139. For the same compound, the “Apoptosis induction CalX2” value (Hep3B; HCC, β-catenin Active) was 0.002 ± 0.002 µM, the Cal_X2 (Hep3B; lowest concentration inducing 2-fold increase of cleaved caspase 3/7 vs DMSO) was 0.0028 and the Cal_X2 (SNU-475) was 10.0000. For the same compound, the Cal_X2 (HepG2) was 0.0129, the Cal_X2 (SK-HEP-1) was 10.0000 and the Cal_X2 (HuH-6-Clone5) was 1.5813. The Cal_X2 (HepG2/C3A) was 0.8273, the Cal_X2 (SNU-182) was 5.2385 and the Cal_X2 (JHH-7) was 4.7601. It also gave a Cal_X2 (SNU-423) of 10.0000, a Cal_X2 (JHH-1) of 0.0427 and a Cal_X2 (FOCUS) of 3.8562. It also gave a Cal_X2 (HLE) of 10.0000, a Cal_X2 (PLC-PRF-5) of 3.8310 and a Cal_X2 (JHH-2) of 0.2806.
